IC50 and Ki data for three compounds are collected here from ChEMBL document CHEMBL1909046, “DrugMatrix in vitro pharmacology data”.

Sequence of Mitogen-activated protein kinase 3 (P27361 whole entry): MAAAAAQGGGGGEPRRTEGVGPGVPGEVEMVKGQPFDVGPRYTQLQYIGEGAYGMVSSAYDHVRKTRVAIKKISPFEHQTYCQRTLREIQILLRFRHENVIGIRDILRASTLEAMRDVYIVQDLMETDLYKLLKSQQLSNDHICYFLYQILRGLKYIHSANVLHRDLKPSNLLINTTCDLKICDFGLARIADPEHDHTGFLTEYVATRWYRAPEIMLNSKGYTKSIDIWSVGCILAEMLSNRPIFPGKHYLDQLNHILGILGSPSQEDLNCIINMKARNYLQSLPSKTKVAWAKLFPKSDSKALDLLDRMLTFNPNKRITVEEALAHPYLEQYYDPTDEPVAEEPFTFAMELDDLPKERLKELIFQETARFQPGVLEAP
Sequence of Platelet-activating factor receptor (P25105 whole entry): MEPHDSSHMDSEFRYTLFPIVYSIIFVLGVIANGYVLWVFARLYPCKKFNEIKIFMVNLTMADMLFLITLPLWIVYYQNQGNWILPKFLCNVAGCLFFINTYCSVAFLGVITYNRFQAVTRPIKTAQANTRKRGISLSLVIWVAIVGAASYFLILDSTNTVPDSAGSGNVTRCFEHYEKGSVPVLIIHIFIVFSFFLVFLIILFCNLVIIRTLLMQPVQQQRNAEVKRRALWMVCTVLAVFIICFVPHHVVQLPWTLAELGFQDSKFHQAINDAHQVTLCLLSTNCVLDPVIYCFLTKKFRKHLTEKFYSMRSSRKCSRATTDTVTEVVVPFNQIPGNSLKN

System in one experiment: not listed separately
Kind of experiment: DRUGMATRIX: Sodium/nucleoside co-transporter radioligand binding (ligand: nitrobenzylthioinosine). It is filed as cell membranes, Cavia porcellus, Dunkin-Hartley, Cerebral cortex, Membrane. To be noted: Not Active = under 50% inhibition at 10 µM.
Regarding `O=NN(CCCl)C(=O)NCCCl` [CARMUSTINE], the IC50 result is “Not Active” and the Ki entry is given as “Not Active”.
For `CC1=C(C(=O)O)N2C(=O)[C@@H](NC(=O)[C@H](N)c3ccccc3)[C@H]2SC1` [CEPHALEXIN ANHYDROUS], the IC50 entry was “Not Active” and the Ki result is on record as “Not Active”.
Take `O=C(N[C@H](CO)[C@H](O)c1ccc([N+](=O)[O-])cc1)C(Cl)Cl` [CHLORAMPHENICOL]: the IC50 entry is “Not Active” and the Ki result is reported as “Not Active”.

The next experiment deals with Aldo-keto reductase family 1 member B1 (Rattus norvegicus, UniProt P07943). Kind of experiment: biochemical. It is filed as tissue-based, Lens of camera-type eye.
Details: not given
`O=NN(CCCl)C(=O)NCCCl` [CARMUSTINE]: the IC50 result is “Not Active”.
For the compound `CC1=C(C(=O)O)N2C(=O)[C@@H](NC(=O)[C@H](N)c3ccccc3)[C@H]2SC1` [CEPHALEXIN ANHYDROUS], the IC50 result is “Not Active”.
As to `O=C(N[C@H](CO)[C@H](O)c1ccc([N+](=O)[O-])cc1)C(Cl)Cl` [CHLORAMPHENICOL], the IC50 entry is on record as “Not Active”.

The target in a further experiment is T1, Type-2 angiotensin II receptor (Homo sapiens, UniProt P50052). Further: in other assays of this panel Not Active means under 50% inhibition at 10 µM.
T1 sequence (P50052 whole entry): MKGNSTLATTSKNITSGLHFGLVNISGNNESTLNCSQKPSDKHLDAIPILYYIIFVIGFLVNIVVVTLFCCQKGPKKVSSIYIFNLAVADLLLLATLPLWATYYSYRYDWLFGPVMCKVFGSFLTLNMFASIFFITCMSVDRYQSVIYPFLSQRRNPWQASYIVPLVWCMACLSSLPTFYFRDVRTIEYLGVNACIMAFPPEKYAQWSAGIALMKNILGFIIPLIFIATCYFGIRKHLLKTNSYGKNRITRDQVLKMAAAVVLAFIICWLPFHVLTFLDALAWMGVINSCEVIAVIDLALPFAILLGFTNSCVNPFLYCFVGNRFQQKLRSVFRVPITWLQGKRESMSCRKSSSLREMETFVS
Assay: not given
It is filed as cell-based. To be noted: cho-k1.
As for `O=NN(CCCl)C(=O)NCCCl` [CARMUSTINE], the IC50 entry is “Not Active”.
`CC1=C(C(=O)O)N2C(=O)[C@@H](NC(=O)[C@H](N)c3ccccc3)[C@H]2SC1` [CEPHALEXIN ANHYDROUS]: the IC50 result was “Not Active”.
On to `O=C(N[C@H](CO)[C@H](O)c1ccc([N+](=O)[O-])cc1)C(Cl)Cl` [CHLORAMPHENICOL], for which the IC50 entry is “Not Active”.

The next experiment addresses T2, B2 bradykinin receptor (Homo sapiens, UniProt P30411).
T2 sequence (P30411 whole entry): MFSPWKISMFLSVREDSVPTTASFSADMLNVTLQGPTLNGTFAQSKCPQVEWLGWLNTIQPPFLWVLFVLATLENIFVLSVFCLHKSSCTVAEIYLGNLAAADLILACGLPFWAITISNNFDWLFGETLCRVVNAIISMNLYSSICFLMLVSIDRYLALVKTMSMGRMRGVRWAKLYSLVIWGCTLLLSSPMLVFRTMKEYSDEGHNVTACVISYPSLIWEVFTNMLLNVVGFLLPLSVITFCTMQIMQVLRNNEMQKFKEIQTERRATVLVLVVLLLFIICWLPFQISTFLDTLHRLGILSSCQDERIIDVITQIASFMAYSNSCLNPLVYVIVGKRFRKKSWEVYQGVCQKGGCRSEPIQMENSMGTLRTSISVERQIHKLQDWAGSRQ
Assay: not given
It is filed as cell membranes, Membrane. To be noted: chem-1.
In the case of `O=NN(CCCl)C(=O)NCCCl` [CARMUSTINE], the IC50 result is recorded as “Not Active”.
Turning to `CC1=C(C(=O)O)N2C(=O)[C@@H](NC(=O)[C@H](N)c3ccccc3)[C@H]2SC1` [CEPHALEXIN ANHYDROUS], the IC50 result is on record as “Not Active”.
With `O=C(N[C@H](CO)[C@H](O)c1ccc([N+](=O)[O-])cc1)C(Cl)Cl` [CHLORAMPHENICOL], the IC50 entry was “Not Active”.

For another experiment, the target named is T3, C-C chemokine receptor type 4 (Homo sapiens, UniProt P51679). Further: in other assays of this panel Not Active means under 50% inhibition at 10 µM.
T3 sequence (P51679 whole entry): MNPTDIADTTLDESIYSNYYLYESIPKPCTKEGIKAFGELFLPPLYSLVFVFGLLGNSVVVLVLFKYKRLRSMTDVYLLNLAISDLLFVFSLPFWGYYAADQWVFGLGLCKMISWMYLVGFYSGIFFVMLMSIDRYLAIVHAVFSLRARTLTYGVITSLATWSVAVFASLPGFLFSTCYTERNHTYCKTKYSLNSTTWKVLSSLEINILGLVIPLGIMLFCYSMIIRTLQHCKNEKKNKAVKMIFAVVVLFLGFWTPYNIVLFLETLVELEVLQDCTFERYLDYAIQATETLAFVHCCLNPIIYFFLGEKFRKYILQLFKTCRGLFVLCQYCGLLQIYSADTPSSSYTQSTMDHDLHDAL
Assay: not given
It is filed as cell membranes, Membrane. To be noted: chem-1.
As for `O=NN(CCCl)C(=O)NCCCl` [CARMUSTINE], the IC50 entry is “Not Active”.
The same measure, in the same setting: the result for `CC1=C(C(=O)O)N2C(=O)[C@@H](NC(=O)[C@H](N)c3ccccc3)[C@H]2SC1` [CEPHALEXIN ANHYDROUS] reads “Not Active”; that for `O=C(N[C@H](CO)[C@H](O)c1ccc([N+](=O)[O-])cc1)C(Cl)Cl` [CHLORAMPHENICOL], “Not Active”.

System in a further experiment: not listed separately
Kind of experiment: DRUGMATRIX: Leukotriene, BLT (LTB4) radioligand binding (ligand: [3H]LTB4). It is filed as cell membranes, Membrane. To be noted: u-937; Not Active = under 50% inhibition at 10 µM.
Turning to `O=NN(CCCl)C(=O)NCCCl` [CARMUSTINE], the IC50 result was “Not Active” and the Ki entry is recorded as “Not Active”.
`CC1=C(C(=O)O)N2C(=O)[C@@H](NC(=O)[C@H](N)c3ccccc3)[C@H]2SC1` [CEPHALEXIN ANHYDROUS]: the IC50 entry is “Not Active” and the Ki entry is recorded as “Not Active”.
As for `O=C(N[C@H](CO)[C@H](O)c1ccc([N+](=O)[O-])cc1)C(Cl)Cl` [CHLORAMPHENICOL], the IC50 result was “Not Active” and the Ki entry is “Not Active”.

A further experiment addresses Platelet-activating factor receptor (Homo sapiens, UniProt P25105).
Assay: not given
It is filed as tissue-based.
Details: not given
Take `O=NN(CCCl)C(=O)NCCCl` [CARMUSTINE]: the IC50 entry is “Not Active”.
As to `CC1=C(C(=O)O)N2C(=O)[C@@H](NC(=O)[C@H](N)c3ccccc3)[C@H]2SC1` [CEPHALEXIN ANHYDROUS], the IC50 entry is on record as “Not Active”.
Turning to `O=C(N[C@H](CO)[C@H](O)c1ccc([N+](=O)[O-])cc1)C(Cl)Cl` [CHLORAMPHENICOL], the IC50 result was “Not Active”.

The target in the next experiment is T4, Angiotensin-converting enzyme (Oryctolagus cuniculus, UniProt P12822).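 Further: enzymatic inhibition of angiotensin-converting enzyme measured with FAPGG as the substrate; in other assays of this panel Not Active means under 50% inhibition at 10 µM.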
T4 sequence (P12822 whole entry): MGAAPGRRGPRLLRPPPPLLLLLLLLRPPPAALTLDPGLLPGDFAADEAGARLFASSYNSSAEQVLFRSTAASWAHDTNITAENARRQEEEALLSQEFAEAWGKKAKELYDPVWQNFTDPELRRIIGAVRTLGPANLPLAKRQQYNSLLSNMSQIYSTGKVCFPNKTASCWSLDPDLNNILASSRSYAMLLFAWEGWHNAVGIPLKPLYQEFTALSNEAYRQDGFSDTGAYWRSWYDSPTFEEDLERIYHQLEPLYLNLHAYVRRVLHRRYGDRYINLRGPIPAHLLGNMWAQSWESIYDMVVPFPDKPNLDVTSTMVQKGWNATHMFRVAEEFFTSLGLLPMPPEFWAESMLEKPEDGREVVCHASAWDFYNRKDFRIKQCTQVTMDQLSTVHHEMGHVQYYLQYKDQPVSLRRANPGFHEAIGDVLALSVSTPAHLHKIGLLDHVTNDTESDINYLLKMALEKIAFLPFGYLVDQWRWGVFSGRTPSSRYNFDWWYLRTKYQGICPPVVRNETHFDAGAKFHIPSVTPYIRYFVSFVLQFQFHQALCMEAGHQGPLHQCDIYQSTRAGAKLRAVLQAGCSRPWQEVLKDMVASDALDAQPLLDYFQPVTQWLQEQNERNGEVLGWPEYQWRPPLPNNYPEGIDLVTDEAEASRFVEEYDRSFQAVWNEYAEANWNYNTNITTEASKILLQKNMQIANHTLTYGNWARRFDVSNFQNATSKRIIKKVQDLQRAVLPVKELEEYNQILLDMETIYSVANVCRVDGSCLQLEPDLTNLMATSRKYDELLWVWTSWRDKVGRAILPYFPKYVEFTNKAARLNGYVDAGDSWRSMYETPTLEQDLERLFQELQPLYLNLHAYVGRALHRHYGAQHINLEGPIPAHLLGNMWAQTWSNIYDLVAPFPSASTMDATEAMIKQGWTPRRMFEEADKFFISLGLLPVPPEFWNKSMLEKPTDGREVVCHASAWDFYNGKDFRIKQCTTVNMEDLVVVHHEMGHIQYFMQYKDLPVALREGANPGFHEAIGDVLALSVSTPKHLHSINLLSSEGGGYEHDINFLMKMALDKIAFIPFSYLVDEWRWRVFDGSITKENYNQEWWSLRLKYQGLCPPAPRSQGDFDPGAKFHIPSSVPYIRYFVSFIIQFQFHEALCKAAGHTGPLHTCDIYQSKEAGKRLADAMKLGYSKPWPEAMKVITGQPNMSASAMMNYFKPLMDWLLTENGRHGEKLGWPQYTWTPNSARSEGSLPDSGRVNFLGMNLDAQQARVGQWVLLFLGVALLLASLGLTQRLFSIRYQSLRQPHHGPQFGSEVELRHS
Assay: not given
It is filed as tissue-based, Lung.
Details: not given
Regarding `O=NN(CCCl)C(=O)NCCCl` [CARMUSTINE], the IC50 entry was “Not Active”.
As to `CC1=C(C(=O)O)N2C(=O)[C@@H](NC(=O)[C@H](N)c3ccccc3)[C@H]2SC1` [CEPHALEXIN ANHYDROUS], the IC50 entry is on record as “Not Active”.
Regarding `O=C(N[C@H](CO)[C@H](O)c1ccc([N+](=O)[O-])cc1)C(Cl)Cl` [CHLORAMPHENICOL], the IC50 entry is reported as “Not Active”.

The next experiment addresses Mitogen-activated protein kinase 3 (Homo sapiens, UniProt P27361). As to the kind of experiment: DRUGMATRIX: Protein Serine/Threonine Kinase, ERK1 enzyme inhibition (substrate: Myelin Basic Protein). To be noted: Not Active = under 50% inhibition at 10 µM. On the set-up: species or system Escherichia coli.
For the compound `O=NN(CCCl)C(=O)NCCCl` [CARMUSTINE], the IC50 result is “Not Active”.
`CC1=C(C(=O)O)N2C(=O)[C@@H](NC(=O)[C@H](N)c3ccccc3)[C@H]2SC1` [CEPHALEXIN ANHYDROUS]: the IC50 entry is given as “Not Active”.
The same measure, in the same setting: the result for `O=C(N[C@H](CO)[C@H](O)c1ccc([N+](=O)[O-])cc1)C(Cl)Cl` [CHLORAMPHENICOL] reads “Not Active”.
